Laboratory results from paper PMC6471618, “Comparison of the Sulfonamide Inhibition Profiles of the α-Carbonic Anhydrase Isoforms (SpiCA1, SpiCA2 and SpiCA3) Encoded by the Genome of the Scleractinian Coral Stylophora pistillata” (Marine Drugs, 2019).
pKi: −log10 of the molar value. “Also recorded” adds a separate entry of the source. Read-outs that look alike come from different tables or passages of the source.

What was measured:
[1] = test system: coral calcification rates; parameters: method as in PMID 27513959; settings: cited from earlier work
SpiCA2 = test system: SpiCA2; parameters: method as in References 12 and 45; settings: ref References 12 and 45, cited from earlier work; for SpiCA2 inhibition, in words: authors' grading of the KI values of Table 1; for pKi: coral recombinant isoform, stopped flow CO2 hydrase assay
hCA II = test system: hCA II; parameters: method as in References 12 and 45; settings: cited from earlier work
SpiCA1 = test system: SpiCA1; parameters: method as in References 12 and 45; settings: ref References 12 and 45, cited from earlier work; for SpiCA1 inhibition, in words: authors' grading of the KI values of Table 1; for pKi: coral recombinant isoform, stopped flow CO2 hydrase assay
SpiCA3 = SpiCA3 (Stylophora pistillata, UniProt A0A1B0Y357); format: biochemical
Method: An Applied Photophysics stopped-flow instrument (Leatherhead, Surrey (UK)) has been used for assaying the CA catalyzed CO2 hydration activity. […] The un-catalyzed rates were determined in the same manner and subtracted from the total observed rates. […] The inhibition constants were obtained by non-linear least-squares methods using PRISM 3 and the Cheng-Prusoff equation, as reported earlier, and represent the mean from at least three different determinations. All CA isoforms were recombinant ones obtained in-house. All salts/small molecules were of the highest purity available, from Sigma-Aldrich (Milan, Italy).

hCA I = test system: hCA I; parameters: method as in References 12 and 45; settings: ref References 12 and 45, cited from earlier work; for hCA I inhibition, in words: authors' grading of the KI values of Table 1; for pKi: human recombinant isozyme, stopped flow CO2 hydrase assay
[2] = authors' grading of the KI values of Table 1
[3] = read-out: KI SpiCA3; recombinant coral isoform, stopped-flow CO2 hydration, 20 mM TRIS pH 8.3, 15 min preincubation; errors 5–10%, 3 assays
[4] = recombinant coral isoform, stopped-flow CO2 hydration, 20 mM TRIS pH 8.3, 15 min preincubation; errors 5–10%, 3 assays; read-out: KI SpiCA3

Chain of SpiCA3 (A0A1B0Y357 entry or part of it): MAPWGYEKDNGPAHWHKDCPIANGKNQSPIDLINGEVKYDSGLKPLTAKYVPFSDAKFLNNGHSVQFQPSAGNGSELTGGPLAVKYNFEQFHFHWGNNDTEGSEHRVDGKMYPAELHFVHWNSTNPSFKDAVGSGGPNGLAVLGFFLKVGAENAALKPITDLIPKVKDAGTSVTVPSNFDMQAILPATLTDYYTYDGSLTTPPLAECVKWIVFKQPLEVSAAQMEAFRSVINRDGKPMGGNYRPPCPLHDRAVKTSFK

Row | SMILES | pKi (SpiCA1) | SpiCA3 inhibition, in words (SpiCA3; [2]) | pKi (SpiCA3; [4]) | further results
1 | CC(=O)Nc1nnc(S(N)(=O)=O)s1 [AAZ, acetazolamide] |  |  |  | inhibition of coral calcification rates [1]: up to 73%
2 | CCN[C@H]1CN(CCCOC)S(=O)(=O)c2sc(S(N)(=O)=O)cc21 [BRZ, brinzolamide] | 7.32 | low potency inhibitors |  | SpiCA2 inhibition, in words (SpiCA2): low potency inhibitors; pKi (SpiCA2): 6.77; hCA II inhibition, in words (hCA II): high potency inhibitors; SpiCA1 inhibition, in words (SpiCA1): high potency inhibitors; pKi (SpiCA3; [3]): 6.60; hCA I inhibition, in words (hCA I): didn’t affect the hCAI activity
3 | NS(=O)(=O)c1nnc(NS(=O)(=O)c2ccccc2)s1 [BZA, benzolamide] | 7.70 |  |  | pKi (SpiCA2): 6.67; pKi (SpiCA3; [3]): 6.40
4 | Cc1ccc(-c2cc(C(F)(F)F)nn2-c2ccc(S(N)(=O)=O)cc2)cc1 [CLX, celecoxib] | 7.47 | worst inhibitors; also recorded: low potency inhibitors |  | SpiCA2 inhibition, in words (SpiCA2): low potency inhibitors; pKi (SpiCA2): 6.16; SpiCA1 inhibition, in words (SpiCA1): high potency inhibitors; hCA I inhibition, in words (hCA I): didn’t affect the hCAI activity
5 | Nc1ccc(S(N)(=O)=O)cc1 [Compound 2] | 6.44 | worst inhibitors |  | 
6 | NS(=O)(=O)c1cccc(S(N)(=O)=O)c1 [Compound 3] |  |  | 6.18 | pKi (hCA I): 7.10
7 | Cc1ccc(S(N)(=O)=O)cc1 [Compound 4] | 6.21 |  |  | pKi (SpiCA2): 6.29; pKi (SpiCA3; [3]): 6.16; pKi (hCA I): 4.11
8 | NCc1ccc(S(N)(=O)=O)cc1 [Compound 5] | 7.08 | worst inhibitors |  | pKi (SpiCA2): 6.29
9 | NCCc1ccc(S(N)(=O)=O)cc1 [Compound 6] | 7.03 | worst inhibitors |  | pKi (SpiCA2): 6.24
10 | Nc1ccc(S(N)(=O)=O)cc1F [Compound 7] | 7.12 | worst inhibitors |  | 
11 | Nc1ccc(S(N)(=O)=O)cc1Cl [Compound 8] | 7.06 | worst inhibitors | 5.74 | 
12 | Nc1ccc(S(N)(=O)=O)cc1Br [Compound 9] | 6.98 |  | 6.04 | pKi (SpiCA2): 6.27
13 | Nc1cc(C(F)(F)F)c(S(N)(=O)=O)cc1S(N)(=O)=O [Compound 11] | 6.44 |  |  | pKi (SpiCA3; [3]): 6.07
14 | Nc1cc(Cl)c(S(N)(=O)=O)cc1S(N)(=O)=O [Compound 12] | 6.53 |  | 6.37 | 
15 | Nc1nnc(S(N)(=O)=O)s1 [Compound 13] | 6.98 |  | 6.56 | 
16 | Cn1nc(S(N)(=O)=O)sc1=N [Compound 14] | 7.04 |  | 6.24 | 
17 | NS(=O)(=O)c1ccc(O)cc1 [Compound 15] |  |  | 6.31 | 
18 | NS(=O)(=O)c1ccc(CO)cc1 [Compound 16] |  |  | 6.70 | 
19 | NS(=O)(=O)c1ccc(CCO)cc1 [Compound 17] | 6.11 | well inhibited |  | pKi (SpiCA3; [3]): 7.18

Row | SMILES | pKi (SpiCA1) | SpiCA3 inhibition, in words (SpiCA3; [2]) | pKi (SpiCA3; [4]) | further results
20 | NS(=O)(=O)c1ccc(C(=O)O)cc1 [Compound 18] | 7.52 |  | 6.62 | 
21 | Nc1nccc(Nc2ccc(S(N)(=O)=O)cc2)n1 [Compound 19] | 7.60 | well inhibited |  | pKi (SpiCA3; [3]): 7.08
22 | Nc1ccc(S(=O)(=O)Nc2nnc(S(N)(=O)=O)s2)cc1 [Compound 20] | 7.55 | well inhibited |  | pKi (SpiCA3; [3]): 7.13
23 | NS(=O)(=O)c1ccc(CCNS(=O)(=O)c2ccc([N+](=O)[O-])cc2CO)cc1 [Compound 21] |  | well inhibited | 7.28 | 
24 | Nc1ccc(S(=O)(=O)Nc2ccc(S(N)(=O)=O)cc2)cc1 [Compound 22] |  |  | 6.25 | 
25 | Nc1ccc(S(=O)(=O)NCc2ccc(S(N)(=O)=O)cc2)cc1 [Compound 23] |  | well inhibited | 7.21 | 
26 | Nc1ccc(S(=O)(=O)NCCc2ccc(S(N)(=O)=O)cc2)cc1 [Compound 24] |  | well inhibited |  | pKi (SpiCA3; [3]): 7.34
27 | CCN[C@H]1C[C@H](C)S(=O)(=O)c2sc(S(N)(=O)=O)cc21 [DZA, Dorzolamide] |  |  |  | SpiCA2 inhibition, in words (SpiCA2): low potency inhibitors; hCA II inhibition, in words (hCA II): high potency inhibitors; SpiCA1 inhibition, in words (SpiCA1): high potency inhibitors
28 | CCOc1ccc2nc(S(N)(=O)=O)sc2c1 [EZA, ethoxzolamide] |  |  |  | inhibition of coral calcification rates [1]: up to 73%
29 | NS(=O)(=O)c1cc2c(cc1Cl)NCNS2(=O)=O [HCT, hydrochlorothiazide] |  |  |  | pKi (SpiCA3; [3]): 6.61
30 | NS(=O)(=O)c1ccc(S(=O)(=O)Nc2cccc3c(Cl)c[nH]c23)cc1 [IND, indisulam] | 6.79 | well inhibited | 7.04 | pKi (SpiCA2): 6.40
31 | CC(=O)/N=c1/sc(S(N)(=O)=O)nn1C [MZA, methazolamide] | 7.68 |  | 6.09 | 
32 | O=C1NS(=O)(=O)c2ccccc21 [SAC, Saccharin] | 7.40 | worst inhibitors |  | pKi (SpiCA2): 6.98; pKi (hCA I): 4.73
33 | CCN1CCCC1CNC(=O)c1cc(S(N)(=O)=O)ccc1OC (centres unmarked) [SLP, Sulpiride] |  | worst inhibitors |  | 
34 | NS(=O)(=O)c1ccc(N2CCCCS2(=O)=O)cc1 [SLT, sulthiame] |  |  | 6.60 | 
35 | CC1(C)O[C@@H]2[C@@H](CO[C@@]3(COS(N)(=O)=O)OC(C)(C)O[C@@H]23)O1 [TPM, topiramate] | 7.54 | worst inhibitors |  | pKi (SpiCA2): 6.44
36 | Cc1onc(-c2ccccc2)c1-c1ccc(S(N)(=O)=O)cc1 [VLX, valdecoxib] |  |  |  | SpiCA2 inhibition, in words (SpiCA2): ineffective
37 | NS(=O)(=O)Cc1noc2ccccc12 [ZNS, zonisamide] | 6.59 | worst inhibitors |  | pKi (SpiCA2): 6.19
